Marks after values point to notes of the source that are not given here.
How the values were obtained:
Assay type in all cases: in vivo
[1] = test system: green height, creeping bentgrass; assay: Color rating of green height creeping bentgrass after fertilization (Example 4); details: about two weeks after application
Experimental: In this Example, the efficacy of fertilizers on green height, creeping bentgrass was examined. Fertilizer compositions according to several embodiments of the present disclosure were prepared and compared to the commercial fertilizer products, urea 46-0-0 (granular) fertilizer, Lebanon fertilizer 21-0-12 (granular, commercially available from Lebanon Seaboard Corporation, Lebanon, Pa.) and Milorganite 6-2-0 (granular, commercially available from Milorganite, Milwaukee, Wis.). The fertilizer compositions were applied to the turf grass prior to winter dormancy of the turf at a rate equivalent to supplying about 1.0 pounds of nitrogen (N) per 1000 square feet. Each of the fertilizer compositions were applied at substantially equal rates of pounds (lbs) of nitrogen (N) per 1000 square feet. Table 1 illustrates the response of green height (i.e., the height of grass on golf course green), creeping bentgrass to fertilization using various exemplary fertilizers of the present invention, taken about two weeks after application of the fertilizer. The letters in the Color and Injury columns correspond to Duncan's Multiple Range Test. Numbers (means) in a column followed by the same letter are not statistically different at P=0.05.

[2] = test system: lawn height, Kentucky bluegrass; assay: Color rating of lawn height Kentucky bluegrass after fertilization (Example 5); details: about two weeks after application
Experimental: In this Example, the efficacy of fertilizers on lawn height, Kentucky bluegrass was examined. Fertilizer compositions according to several embodiments of the present disclosure were prepared and compared to the commercial fertilizer products, urea 46-0-0 (granular) fertilizer, Lebanon fertilizer 21-0-12 (granular, commercially available from Lebanon Seaboard Corporation, Lebanon, Pa.) and Milorganite 6-2-0 (granular, commercially available from Milorganite, Milwaukee, Wis.). The fertilizer compositions were applied to the turf grass prior to winter dormancy at a rate equivalent to supplying about 1.0 pounds of nitrogen (N) per 1000 square feet. Each of the fertilizer compositions were applied at substantially equal rates of lbs of nitrogen (N) per 1000 square feet. Table 2 illustrates the response of lawn height, Kentucky bluegrass to fertilization using various exemplary fertilizers of the present invention, taken about two weeks after application of the fertilizer. The letters in the Color and Injury columns correspond to Duncan's Multiple Range Test.

[3] = test system: creeping bentgrass for greens; assay: Turfgrass quality and color ratings, creeping bentgrass for greens (Example 12); details: scale 1-10
Text: (§1) In this Example, the effect of a fertilizer comprising lysine on turfgrass growth was examined. The effects of lysine (HCl) and LIQUID LYSINE on a common type of golf course greens quality turfgrass (creeping bentgrass for greens) were compared with those of CoRoN® brand fertilizer (commercially available from Helena Chemical Co., Collierville, Tenn.).
(§2) Nine fertilizer treatments comprising three concentrations of each fertilizer composition (Corono® (N—P—K, 14-2-14), LIQUID LYSINE (N—P—K, 10-2-1), and lysine (HCl) (N—P—K, 15-2-1)) were prepared and applied to 3 replications of creeping bentgrass for use on golf course greens. The lysine (HCl) (250 g) was dissolved in water (500 mL) prior to application. Each fertilizer treatment was applied in concentrations of 0.7 g N/m^2, 1.4 g N/m^2, and 2.8 g N/m^2. All applications were made using an Ortho Heavy Duty hand pump sprayer with all products being mixed with 126 mL of water for application. Plot size was 2 ft×6 ft set up as a randomized complete block. Irrigation was applied following application. Plots were rated for turfgrass quality and color (scale of 1-10 where 10=dark green turf, 1=dead/brown turf, and 6minimally acceptable turf) and phytotoxicity (% bum) throughout the study period. Quality, color, and phytotoxicity were measured on day 7, day 14, day 2I1, day 28, day 35, and day 42 after application. All data was subject to statistical analysis and significant means were determined.

[4] = test system: creeping bentgrass for greens; assay: Phytotoxicity (% burn), creeping bentgrass for greens (Example 12)
Text: as §1, §2

[5] = 1.09 Lbs. product/1000 square feet
[6] = 2.17 Lbs. product/1000 square feet
[7] = 6.51 Lbs. product/1000 square feet

NC(N)=O [Urea, urea, reference compound]
Color 1-9 (9 = dark green) [1, 5]: 6.7^a,b,c
Color 1-9 (9 = dark green) [1, 6]: 6.7^a,b,c
Color 1-9 (9 = dark green) [1, 7]: 6.0^d,c
Color 1-9 (9 = dark green) [2, 5]: 7.0
Color 1-9 (9 = dark green) [2, 6]: 7.3
Color 1-9 (9 = dark green) [2, 7]: 7.7

Cl.NCCCC[C@H](N)C(=O)O [Lys (HCl) 15% N, L-lysine monohydrochloride]
Color Ratings - Creeping Bentgrass ([3]; Rate 0.7 gN/m^2, Day 7): 6.0abc
Quality Ratings - Creeping Bentgrass ([3]; Rate 0.7 gN/m^2, Day 7): 5.3a
Color Ratings - Creeping Bentgrass ([3]; Rate 0.7 gN/m^2, Day 14): 6.0cd
Quality Ratings - Creeping Bentgrass ([3]; Rate 0.7 gN/m^2, Day 14): 6.3cd
Color Ratings - Creeping Bentgrass ([3]; Rate 0.7 gN/m^2, Day 21): 6.3a
Quality Ratings - Creeping Bentgrass ([3]; Rate 0.7 gN/m^2, Day 21): 6.7a
Color Ratings - Creeping Bentgrass ([3]; Rate 0.7 gN/m^2, Day 28): 6.3ab
Quality Ratings - Creeping Bentgrass ([3]; Rate 0.7 gN/m^2, Day 28): 6.3a
Color Ratings - Creeping Bentgrass ([3]; Rate 0.7 gN/m^2, Day 35): 6.3a
Quality Ratings - Creeping Bentgrass ([3]; Rate 0.7 gN/m^2, Day 35): 6.3ab
Color Ratings - Creeping Bentgrass ([3]; Rate 0.7 gN/m^2, Day 42): 7.3a
Quality Ratings - Creeping Bentgrass ([3]; Rate 0.7 gN/m^2, Day 42): 7.0a
Color Ratings - Creeping Bentgrass ([3]; Rate 1.4 gN/m^2, Day 7): 5.0c
Quality Ratings - Creeping Bentgrass ([3]; Rate 1.4 gN/m^2, Day 7): 5.7a
Color Ratings - Creeping Bentgrass ([3]; Rate 1.4 gN/m^2, Day 14): 5.0e
Quality Ratings - Creeping Bentgrass ([3]; Rate 1.4 gN/m^2, Day 14): 5.7de
Color Ratings - Creeping Bentgrass ([3]; Rate 1.4 gN/m^2, Day 21): 6.0a
Quality Ratings - Creeping Bentgrass ([3]; Rate 1.4 gN/m^2, Day 21): 7.0a
Color Ratings - Creeping Bentgrass ([3]; Rate 1.4 gN/m^2, Day 28): 6.7ab
Quality Ratings - Creeping Bentgrass ([3]; Rate 1.4 gN/m^2, Day 28): 7.0a
Color Ratings - Creeping Bentgrass ([3]; Rate 1.4 gN/m^2, Day 35): 5.7ab
Quality Ratings - Creeping Bentgrass ([3]; Rate 1.4 gN/m^2, Day 35): 5.3cd
Color Ratings - Creeping Bentgrass ([3]; Rate 1.4 gN/m^2, Day 42): 7.0a
Quality Ratings - Creeping Bentgrass ([3]; Rate 1.4 gN/m^2, Day 42): 6.7a
Color Ratings - Creeping Bentgrass ([3]; Rate 2.8 gN/m^2, Day 7): 5.3bc
Quality Ratings - Creeping Bentgrass ([3]; Rate 2.8 gN/m^2, Day 7): 5.7a
Color Ratings - Creeping Bentgrass ([3]; Rate 2.8 gN/m^2, Day 14): 5.0e
Quality Ratings - Creeping Bentgrass ([3]; Rate 2.8 gN/m^2, Day 14): 5.3e
Color Ratings - Creeping Bentgrass ([3]; Rate 2.8 gN/m^2, Day 21): 6.0a
Quality Ratings - Creeping Bentgrass ([3]; Rate 2.8 gN/m^2, Day 21): 7.0a
Color Ratings - Creeping Bentgrass ([3]; Rate 2.8 gN/m^2, Day 28): 6.3ab
Quality Ratings - Creeping Bentgrass ([3]; Rate 2.8 gN/m^2, Day 28): 7.0a
Color Ratings - Creeping Bentgrass ([3]; Rate 2.8 gN/m^2, Day 35): 5.0b
Quality Ratings - Creeping Bentgrass ([3]; Rate 2.8 gN/m^2, Day 35): 4.3 days
Color Ratings - Creeping Bentgrass ([3]; Rate 2.8 gN/m^2, Day 42): 6.3a
Quality Ratings - Creeping Bentgrass ([3]; Rate 2.8 gN/m^2, Day 42): 6.7a
Phytotoxicity (% Burn) - Creeping Bentgrass ([4]; Rate 0.7 gN/m^2, Day 7): 2.3b %
Phytotoxicity (% Burn) - Creeping Bentgrass ([4]; Rate 0.7 gN/m^2, Day 14): 15.0c %
Phytotoxicity (% Burn) - Creeping Bentgrass ([4]; Rate 0.7 gN/m^2, Day 21): 10.0d %
Phytotoxicity (% Burn) - Creeping Bentgrass ([4]; Rate 0.7 gN/m^2, Day 28): 6.7b %
Phytotoxicity (% Burn) - Creeping Bentgrass ([4]; Rate 0.7 gN/m^2, Day 35): 3.3d %
Phytotoxicity (% Burn) - Creeping Bentgrass ([4]; Rate 0.7 gN/m^2, Day 42): 1.7c %
Phytotoxicity (% Burn) - Creeping Bentgrass ([4]; Rate 1.4 gN/m^2, Day 7): 15.0c %
Phytotoxicity (% Burn) - Creeping Bentgrass ([4]; Rate 1.4 gN/m^2, Day 14): 58.3b %
Phytotoxicity (% Burn) - Creeping Bentgrass ([4]; Rate 1.4 gN/m^2, Day 21): 51.7b %
Phytotoxicity (% Burn) - Creeping Bentgrass ([4]; Rate 1.4 gN/m^2, Day 28): 18.3ab %
Phytotoxicity (% Burn) - Creeping Bentgrass ([4]; Rate 1.4 gN/m^2, Day 35): 56.7b %
Phytotoxicity (% Burn) - Creeping Bentgrass ([4]; Rate 1.4 gN/m^2, Day 42): 31.7b %
Phytotoxicity (% Burn) - Creeping Bentgrass ([4]; Rate 2.8 gN/m^2, Day 7): 36.7a %
Phytotoxicity (% Burn) - Creeping Bentgrass ([4]; Rate 2.8 gN/m^2, Day 14): 78.3a %
Phytotoxicity (% Burn) - Creeping Bentgrass ([4]; Rate 2.8 gN/m^2, Day 21): 73.3a %
Phytotoxicity (% Burn) - Creeping Bentgrass ([4]; Rate 2.8 gN/m^2, Day 28): 35.0a %
Phytotoxicity (% Burn) - Creeping Bentgrass ([4]; Rate 2.8 gN/m^2, Day 35): 83.3a %
Phytotoxicity (% Burn) - Creeping Bentgrass ([4]; Rate 2.8 gN/m^2, Day 42): 78.3a %
